From ChEMBL document CHEMBL3991601, “The target landscape of clinical kinase drugs” (Science, 2017)
The source made the active and inactive calls.

Columns and labels:
[1] = target: Serine/threonine-protein kinase MRCK gamma (Homo sapiens, UniProt Q6DT37)
[2] = target: Hepatocyte growth factor receptor (Homo sapiens, UniProt P08581)
[3] = target: Epidermal growth factor receptor (Homo sapiens, UniProt P00533)
[4] = target: Phosphatidylethanolamine-binding protein 1 (Homo sapiens, UniProt P30086)
[5] = target: T1, Mitogen-activated protein kinase kinase kinase 3 (Homo sapiens, UniProt Q99759)
T1 sequence (Q99759 whole entry): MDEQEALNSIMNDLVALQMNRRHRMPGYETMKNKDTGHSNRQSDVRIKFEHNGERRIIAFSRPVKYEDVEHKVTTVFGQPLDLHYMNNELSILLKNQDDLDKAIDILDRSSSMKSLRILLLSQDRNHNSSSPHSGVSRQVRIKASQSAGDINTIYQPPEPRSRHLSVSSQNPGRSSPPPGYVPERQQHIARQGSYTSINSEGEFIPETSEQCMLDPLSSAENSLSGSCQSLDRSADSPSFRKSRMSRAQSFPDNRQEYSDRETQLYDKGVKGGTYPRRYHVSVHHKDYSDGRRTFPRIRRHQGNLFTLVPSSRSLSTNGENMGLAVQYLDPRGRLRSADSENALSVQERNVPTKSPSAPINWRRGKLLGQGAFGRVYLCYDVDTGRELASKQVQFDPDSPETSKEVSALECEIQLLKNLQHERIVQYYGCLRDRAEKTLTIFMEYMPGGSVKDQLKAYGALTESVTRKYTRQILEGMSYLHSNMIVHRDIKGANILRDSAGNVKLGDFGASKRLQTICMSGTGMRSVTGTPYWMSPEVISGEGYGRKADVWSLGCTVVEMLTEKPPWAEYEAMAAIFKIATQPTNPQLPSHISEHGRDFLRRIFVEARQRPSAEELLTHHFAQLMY

[6] = target: Dual specificity protein kinase CLK2 (Homo sapiens, UniProt P49760)
[7] = target: Rho-associated protein kinase 1 (Homo sapiens, UniProt Q13464)
[8] = target: Bone morphogenetic protein receptor type-1A (Homo sapiens, UniProt P36894)
Sequence of Bone morphogenetic protein receptor type-1A (P36894 whole entry): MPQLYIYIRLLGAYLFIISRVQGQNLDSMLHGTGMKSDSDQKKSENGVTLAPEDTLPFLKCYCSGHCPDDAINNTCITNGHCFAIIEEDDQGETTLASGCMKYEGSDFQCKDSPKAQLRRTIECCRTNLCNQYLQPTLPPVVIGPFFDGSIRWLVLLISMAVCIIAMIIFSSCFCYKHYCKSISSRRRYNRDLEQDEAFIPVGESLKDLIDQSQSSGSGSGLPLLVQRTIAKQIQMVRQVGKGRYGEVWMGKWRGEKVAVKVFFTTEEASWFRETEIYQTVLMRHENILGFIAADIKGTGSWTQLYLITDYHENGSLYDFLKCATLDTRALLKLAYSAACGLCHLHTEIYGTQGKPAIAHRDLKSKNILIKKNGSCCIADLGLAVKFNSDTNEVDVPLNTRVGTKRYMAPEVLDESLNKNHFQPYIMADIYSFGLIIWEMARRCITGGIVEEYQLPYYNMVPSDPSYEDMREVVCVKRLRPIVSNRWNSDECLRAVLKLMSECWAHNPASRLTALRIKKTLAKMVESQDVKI

[9] = target: Proto-oncogene tyrosine-protein kinase receptor Ret (Homo sapiens, UniProt P07949)
Sequence of Proto-oncogene tyrosine-protein kinase receptor Ret (P07949 whole entry): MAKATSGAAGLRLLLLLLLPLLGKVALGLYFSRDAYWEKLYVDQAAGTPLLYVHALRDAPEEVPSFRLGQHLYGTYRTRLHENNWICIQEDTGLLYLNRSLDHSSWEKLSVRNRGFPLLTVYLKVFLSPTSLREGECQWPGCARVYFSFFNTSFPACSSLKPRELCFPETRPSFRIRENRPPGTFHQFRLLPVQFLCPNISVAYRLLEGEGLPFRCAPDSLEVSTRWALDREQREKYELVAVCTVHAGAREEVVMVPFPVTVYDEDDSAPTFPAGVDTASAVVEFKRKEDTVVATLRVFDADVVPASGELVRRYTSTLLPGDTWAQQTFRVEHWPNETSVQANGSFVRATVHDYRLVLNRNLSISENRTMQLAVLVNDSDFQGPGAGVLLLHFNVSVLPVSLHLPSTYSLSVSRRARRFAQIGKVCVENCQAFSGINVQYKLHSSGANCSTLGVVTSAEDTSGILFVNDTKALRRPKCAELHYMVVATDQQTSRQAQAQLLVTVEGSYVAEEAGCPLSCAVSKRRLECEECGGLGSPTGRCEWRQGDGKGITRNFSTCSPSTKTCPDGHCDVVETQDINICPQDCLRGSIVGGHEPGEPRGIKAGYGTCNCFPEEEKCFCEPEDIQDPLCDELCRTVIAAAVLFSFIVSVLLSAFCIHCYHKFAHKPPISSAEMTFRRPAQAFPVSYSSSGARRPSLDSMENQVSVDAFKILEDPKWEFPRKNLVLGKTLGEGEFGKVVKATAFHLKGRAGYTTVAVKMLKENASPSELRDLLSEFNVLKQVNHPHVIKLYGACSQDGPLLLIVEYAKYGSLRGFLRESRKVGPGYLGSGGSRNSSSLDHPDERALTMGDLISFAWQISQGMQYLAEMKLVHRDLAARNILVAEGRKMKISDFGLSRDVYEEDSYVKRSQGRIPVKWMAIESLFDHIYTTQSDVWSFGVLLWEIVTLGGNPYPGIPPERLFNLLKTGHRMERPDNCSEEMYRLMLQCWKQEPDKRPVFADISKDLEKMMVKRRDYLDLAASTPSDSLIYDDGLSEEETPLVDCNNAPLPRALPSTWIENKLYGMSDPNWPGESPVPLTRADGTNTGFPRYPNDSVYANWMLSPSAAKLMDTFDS

[10] = target: High affinity nerve growth factor receptor (Homo sapiens, UniProt P04629)
Sequence of High affinity nerve growth factor receptor (P04629 whole entry): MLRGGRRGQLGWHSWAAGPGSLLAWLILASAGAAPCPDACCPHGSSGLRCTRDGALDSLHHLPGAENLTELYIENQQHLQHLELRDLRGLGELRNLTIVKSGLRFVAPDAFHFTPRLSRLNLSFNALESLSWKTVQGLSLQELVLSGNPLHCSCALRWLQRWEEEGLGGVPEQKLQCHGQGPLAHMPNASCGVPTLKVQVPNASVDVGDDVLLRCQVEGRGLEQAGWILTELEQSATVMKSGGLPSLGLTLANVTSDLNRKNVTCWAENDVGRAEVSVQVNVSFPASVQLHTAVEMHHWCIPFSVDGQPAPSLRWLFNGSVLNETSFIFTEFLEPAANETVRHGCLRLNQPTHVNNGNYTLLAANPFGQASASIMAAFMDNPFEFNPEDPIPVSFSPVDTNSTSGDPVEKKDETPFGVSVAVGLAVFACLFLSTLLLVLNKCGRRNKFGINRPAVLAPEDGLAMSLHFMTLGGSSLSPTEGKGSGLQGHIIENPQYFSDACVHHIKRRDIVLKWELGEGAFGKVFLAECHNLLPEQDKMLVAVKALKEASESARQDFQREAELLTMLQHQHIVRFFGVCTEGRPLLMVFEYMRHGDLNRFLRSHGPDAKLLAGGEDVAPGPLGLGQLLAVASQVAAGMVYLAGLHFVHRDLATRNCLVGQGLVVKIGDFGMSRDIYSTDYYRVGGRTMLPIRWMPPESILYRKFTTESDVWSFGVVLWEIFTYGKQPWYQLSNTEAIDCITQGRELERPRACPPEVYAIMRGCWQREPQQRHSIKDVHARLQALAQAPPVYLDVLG

[11] = target: Serine/threonine-protein kinase ATR (Homo sapiens, UniProt Q13535)
[12] = target: Chromodomain-helicase-DNA-binding protein 4 (Homo sapiens, UniProt Q14839)
[13] = target: DNA topoisomerase 2-alpha (Homo sapiens, UniProt P11388)
[14] = target: PAS domain-containing serine/threonine-protein kinase (Homo sapiens, UniProt Q96RG2)
Sequence of PAS domain-containing serine/threonine-protein kinase (Q96RG2 whole entry, the tested form may be a part): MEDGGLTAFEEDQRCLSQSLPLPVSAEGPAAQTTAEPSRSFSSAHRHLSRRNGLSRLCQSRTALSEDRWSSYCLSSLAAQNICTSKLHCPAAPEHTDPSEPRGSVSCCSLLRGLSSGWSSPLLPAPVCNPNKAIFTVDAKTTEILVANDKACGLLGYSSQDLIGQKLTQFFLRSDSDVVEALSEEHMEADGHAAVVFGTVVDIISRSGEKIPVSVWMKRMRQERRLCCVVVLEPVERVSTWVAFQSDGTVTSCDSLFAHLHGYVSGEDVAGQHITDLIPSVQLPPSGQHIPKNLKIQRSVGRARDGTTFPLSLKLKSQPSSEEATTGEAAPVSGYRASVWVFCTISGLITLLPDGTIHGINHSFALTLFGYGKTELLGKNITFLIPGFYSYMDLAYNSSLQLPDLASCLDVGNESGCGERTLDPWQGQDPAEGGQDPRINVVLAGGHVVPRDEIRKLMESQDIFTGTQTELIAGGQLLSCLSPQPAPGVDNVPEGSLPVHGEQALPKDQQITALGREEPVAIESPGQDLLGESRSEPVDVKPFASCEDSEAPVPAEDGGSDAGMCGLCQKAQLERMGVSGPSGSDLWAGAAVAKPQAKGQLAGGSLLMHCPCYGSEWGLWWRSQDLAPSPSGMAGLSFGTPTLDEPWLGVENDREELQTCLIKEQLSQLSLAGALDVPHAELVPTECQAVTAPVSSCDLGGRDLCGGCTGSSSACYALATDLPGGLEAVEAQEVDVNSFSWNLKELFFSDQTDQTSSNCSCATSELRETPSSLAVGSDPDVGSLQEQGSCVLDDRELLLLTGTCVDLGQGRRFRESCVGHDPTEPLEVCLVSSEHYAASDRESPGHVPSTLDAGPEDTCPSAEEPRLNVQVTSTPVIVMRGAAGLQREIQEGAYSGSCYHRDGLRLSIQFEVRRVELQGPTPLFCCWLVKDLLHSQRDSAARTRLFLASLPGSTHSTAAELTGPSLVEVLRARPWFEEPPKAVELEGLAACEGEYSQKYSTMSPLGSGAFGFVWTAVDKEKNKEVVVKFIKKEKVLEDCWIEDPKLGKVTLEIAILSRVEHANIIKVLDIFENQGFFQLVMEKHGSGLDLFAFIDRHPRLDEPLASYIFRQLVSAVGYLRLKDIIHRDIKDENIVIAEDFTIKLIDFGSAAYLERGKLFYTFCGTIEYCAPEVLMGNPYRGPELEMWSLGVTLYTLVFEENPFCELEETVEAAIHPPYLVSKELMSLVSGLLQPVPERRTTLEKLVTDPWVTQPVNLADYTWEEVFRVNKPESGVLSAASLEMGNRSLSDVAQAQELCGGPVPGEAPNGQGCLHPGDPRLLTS

[15] = target: T2, Cyclin-dependent kinase-like 5 (Homo sapiens, UniProt O76039)
T2 sequence (O76039 whole entry): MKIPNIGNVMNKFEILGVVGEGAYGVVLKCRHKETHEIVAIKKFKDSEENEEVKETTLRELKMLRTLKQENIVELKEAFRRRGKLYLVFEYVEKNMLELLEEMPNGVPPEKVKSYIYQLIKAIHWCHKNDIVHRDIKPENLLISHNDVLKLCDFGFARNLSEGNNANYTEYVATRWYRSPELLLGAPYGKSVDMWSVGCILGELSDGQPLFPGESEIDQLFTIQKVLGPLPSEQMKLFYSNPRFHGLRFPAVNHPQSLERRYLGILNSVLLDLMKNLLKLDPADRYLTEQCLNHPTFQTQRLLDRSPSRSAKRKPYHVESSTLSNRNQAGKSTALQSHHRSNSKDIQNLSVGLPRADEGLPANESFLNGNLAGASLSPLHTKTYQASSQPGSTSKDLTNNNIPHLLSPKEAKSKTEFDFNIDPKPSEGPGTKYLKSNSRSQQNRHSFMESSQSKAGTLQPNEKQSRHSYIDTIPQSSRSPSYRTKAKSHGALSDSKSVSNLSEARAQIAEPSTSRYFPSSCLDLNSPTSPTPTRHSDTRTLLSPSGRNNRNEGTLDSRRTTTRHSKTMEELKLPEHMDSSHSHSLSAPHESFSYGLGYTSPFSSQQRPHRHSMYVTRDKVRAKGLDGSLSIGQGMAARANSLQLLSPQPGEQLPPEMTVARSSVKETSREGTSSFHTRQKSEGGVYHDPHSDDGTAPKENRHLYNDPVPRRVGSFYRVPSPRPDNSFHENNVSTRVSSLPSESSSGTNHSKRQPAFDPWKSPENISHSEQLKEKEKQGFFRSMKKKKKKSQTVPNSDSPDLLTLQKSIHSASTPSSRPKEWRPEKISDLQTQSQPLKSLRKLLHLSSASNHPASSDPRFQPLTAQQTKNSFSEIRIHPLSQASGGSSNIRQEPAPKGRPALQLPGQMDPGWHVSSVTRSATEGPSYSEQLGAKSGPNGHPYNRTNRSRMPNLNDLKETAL

[16] = target: Dual specificity testis-specific protein kinase 2 (Homo sapiens, UniProt Q96S53)
[17] = target: Mitogen-activated protein kinase 14 (Homo sapiens, UniProt Q16539)
Sequence of Mitogen-activated protein kinase 14 (Q16539 whole entry): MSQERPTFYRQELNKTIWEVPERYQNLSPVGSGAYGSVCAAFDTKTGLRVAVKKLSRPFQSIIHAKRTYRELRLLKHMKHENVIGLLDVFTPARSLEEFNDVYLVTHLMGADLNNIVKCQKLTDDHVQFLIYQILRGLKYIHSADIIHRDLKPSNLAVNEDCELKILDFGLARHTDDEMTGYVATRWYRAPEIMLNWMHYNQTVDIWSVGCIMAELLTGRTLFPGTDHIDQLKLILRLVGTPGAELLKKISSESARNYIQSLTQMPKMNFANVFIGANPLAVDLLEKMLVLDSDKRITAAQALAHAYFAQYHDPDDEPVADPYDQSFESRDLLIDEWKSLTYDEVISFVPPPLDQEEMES

[18] = target: Serine/threonine-protein kinase pim-2 (Homo sapiens, UniProt Q9P1W9)
Sequence of Serine/threonine-protein kinase pim-2 (Q9P1W9 whole entry): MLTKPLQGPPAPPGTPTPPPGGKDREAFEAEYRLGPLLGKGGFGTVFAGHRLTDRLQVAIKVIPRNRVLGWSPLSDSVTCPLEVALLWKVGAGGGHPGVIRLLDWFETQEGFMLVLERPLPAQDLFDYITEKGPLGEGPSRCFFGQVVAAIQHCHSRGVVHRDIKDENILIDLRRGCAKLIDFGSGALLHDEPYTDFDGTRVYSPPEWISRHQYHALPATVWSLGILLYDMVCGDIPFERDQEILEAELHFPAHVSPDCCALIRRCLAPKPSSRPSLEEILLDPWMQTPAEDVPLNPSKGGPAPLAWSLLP

[19] = target: Serine/threonine-protein kinase 24 (Homo sapiens, UniProt Q9Y6E0)
Sequence of Serine/threonine-protein kinase 24 (Q9Y6E0 whole entry): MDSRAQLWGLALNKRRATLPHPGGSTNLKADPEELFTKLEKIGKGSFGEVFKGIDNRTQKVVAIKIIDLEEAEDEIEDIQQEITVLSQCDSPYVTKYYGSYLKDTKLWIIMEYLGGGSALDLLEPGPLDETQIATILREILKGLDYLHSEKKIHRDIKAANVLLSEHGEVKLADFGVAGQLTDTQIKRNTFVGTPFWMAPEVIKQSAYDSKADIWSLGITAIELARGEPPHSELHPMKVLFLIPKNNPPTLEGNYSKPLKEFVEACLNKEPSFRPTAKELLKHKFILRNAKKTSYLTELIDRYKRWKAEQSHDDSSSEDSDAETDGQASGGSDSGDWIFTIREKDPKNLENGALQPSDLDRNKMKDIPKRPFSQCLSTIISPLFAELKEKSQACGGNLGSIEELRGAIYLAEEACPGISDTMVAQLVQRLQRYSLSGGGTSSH

[20] = target: Choline-phosphate cytidylyltransferase A (Homo sapiens, UniProt P49585)
Further: in the data inactive means no Kd found up to 30 µM.

| Compound | Kd [1] | Kd [2] | Kd [3] | Kd [4] | Kd [5] | Kd [6] | Kd [7] | Kd [8] | Kd [9] | Kd [10] | Kd [11] | Kd [12] | Kd [13] | Kd [14] | Kd [15] | Kd [16] | Kd [17] | Kd [18] | Kd [19] | Kd [20] |
| --- | --- | --- | --- | --- | --- | --- | --- | --- | --- | --- | --- | --- | --- | --- | --- | --- | --- | --- | --- | --- |
| COc1cc2ncnc(Nc3ccc(O)cc3)c2cc1OC [WHI-P131] | > 30 µM (inactive) | > 30 µM (inactive) | 1.16 µM (active) | > 30 µM (inactive) | > 30 µM (inactive) | > 30 µM (inactive) | > 30 µM (inactive) | > 30 µM (inactive) | 21.9 µM (active) | > 30 µM (inactive) | > 30 µM (inactive) | > 30 µM (inactive) | > 30 µM (inactive) | > 30 µM (inactive) | > 30 µM (inactive) | > 30 µM (inactive) | > 30 µM (inactive) | > 30 µM (inactive) | > 30 µM (inactive) | – |
| O[C@H]1CC[C@H](Nc2ncc3nc(Nc4c(F)cc(F)cc4F)n([C@H]4CCOC4)c3n2)CC1 [TANZISERTIB] | > 30 µM (inactive) | > 30 µM (inactive) | – | > 30 µM (inactive) | > 30 µM (inactive) | > 30 µM (inactive) | > 30 µM (inactive) | > 30 µM (inactive) | – | > 30 µM (inactive) | > 30 µM (inactive) | > 30 µM (inactive) | > 30 µM (inactive) | > 30 µM (inactive) | > 30 µM (inactive) | – | 0.729 µM (active) | > 30 µM (inactive) | > 30 µM (inactive) | – |
| S=C(NCc1ccc2c(c1)OCO2)N1CCN(c2ncnc3c2oc2ccccc23)CC1 [AMUVATINIB] | > 30 µM (inactive) | > 30 µM (inactive) | > 30 µM (inactive) | > 30 µM (inactive) | > 30 µM (inactive) | > 30 µM (inactive) | > 30 µM (inactive) | > 30 µM (inactive) | > 30 µM (inactive) | > 30 µM (inactive) | – | > 30 µM (inactive) | > 30 µM (inactive) | > 30 µM (inactive) | – | – | > 30 µM (inactive) | – | > 30 µM (inactive) | > 30 µM (inactive) |
| CNC(=O)c1cc(COc2nnc(Nc3ccc(Cl)cc3)c3ccoc23)ccn1 [TELATINIB] | > 30 µM (inactive) | > 30 µM (inactive) | > 30 µM (inactive) | > 30 µM (inactive) | > 30 µM (inactive) | > 30 µM (inactive) | – | > 30 µM (inactive) | > 30 µM (inactive) | > 30 µM (inactive) | > 30 µM (inactive) | > 30 µM (inactive) | > 30 µM (inactive) | > 30 µM (inactive) | – | > 30 µM (inactive) | > 30 µM (inactive) | > 30 µM (inactive) | > 30 µM (inactive) | – |
| CNC(=O)c1ccc(Nc2ncc(C(F)(F)F)c(NCc3nccnc3N(C)S(C)(=O)=O)n2)cc1 [DEFACTINIB] | > 30 µM (inactive) | > 30 µM (inactive) | > 30 µM (inactive) | – | > 30 µM (inactive) | > 30 µM (inactive) | > 30 µM (inactive) | > 30 µM (inactive) | 27.5 µM (active) | – | > 30 µM (inactive) | > 30 µM (inactive) | > 30 µM (inactive) | – | 0.016 µM | > 30 µM (inactive) | > 30 µM (inactive) | > 30 µM (inactive) | > 30 µM (inactive) | – |
| C=CCn1c(=O)c2cnc(Nc3ccc(N4CCN(C)CC4)cc3)nc2n1-c1cccc(C(C)(C)O)n1 [ADAVOSERTIB] | > 30 µM (inactive) | – | > 30 µM (inactive) | > 30 µM (inactive) | > 30 µM (inactive) | – | – | > 30 µM (inactive) | – | – | > 30 µM (inactive) | > 30 µM (inactive) | > 30 µM (inactive) | > 30 µM (inactive) | > 30 µM (inactive) | > 30 µM (inactive) | – | > 30 µM (inactive) | – | – |
| CC1(C)CNc2cc(NC(=O)c3cccnc3NCc3ccncc3)ccc21 [MOTESANIB] | – | – | – | > 30 µM (inactive) | – | – | – | – | – | – | – | > 30 µM (inactive) | – | – | – | > 30 µM (inactive) | – | – | – | > 30 µM (inactive) |
| CN(C)C/C=C/C(=O)Nc1cc2c(Nc3ccc(F)c(Cl)c3)ncnc2cc1O[C@H]1CCOC1 [AFATINIB] | – | – | – | > 30 µM (inactive) | – | – | – | – | – | – | – | > 30 µM (inactive) | > 30 µM (inactive) | > 30 µM (inactive) | – | – | – | – | – | > 30 µM (inactive) |
| Cc1cc(-c2cc(OC(=O)c3ccccc3)ccc2Cl)cc2nnc(Nc3ccc(OCCN4CCCC4)cc3)nc12 [TG100-801] | > 30 µM (inactive) | > 30 µM (inactive) | > 30 µM (inactive) | – | > 30 µM (inactive) | > 30 µM (inactive) | > 30 µM (inactive) | > 30 µM (inactive) | 1.03 µM (active) | > 30 µM (inactive) | > 30 µM (inactive) | – | – | > 30 µM (inactive) | > 30 µM (inactive) | > 30 µM (inactive) | > 30 µM (inactive) | > 30 µM (inactive) | – | – |
| NC[C@@](O)(c1ccc(Cl)cc1)c1ccc(-c2cn[nH]c2)cc1 [AT-13148] | > 30 µM (inactive) | > 30 µM (inactive) | > 30 µM (inactive) | > 30 µM (inactive) | > 30 µM (inactive) | > 30 µM (inactive) | 0.027 µM (active) | > 30 µM (inactive) | > 30 µM (inactive) | – | – | > 30 µM (inactive) | > 30 µM (inactive) | – | – | – | > 30 µM (inactive) | – | – | > 30 µM (inactive) |
| C[C@@H]1COC(Nc2ccc3ncnc(Nc4ccc(OCc5nccs5)c(Cl)c4)c3c2)=N1 [VARLITINIB] | > 30 µM (inactive) | > 30 µM (inactive) | 0.005 µM (active) | – | > 30 µM (inactive) | > 30 µM (inactive) | > 30 µM (inactive) | > 30 µM (inactive) | > 30 µM (inactive) | > 30 µM (inactive) | > 30 µM (inactive) | > 30 µM (inactive) | > 30 µM (inactive) | > 30 µM (inactive) | > 30 µM (inactive) | > 30 µM (inactive) | > 30 µM (inactive) | > 30 µM (inactive) | > 30 µM (inactive) | – |
| O=S(=O)(c1cccc2c(O)nccc12)N1CCCNCC1 [HYDROXYFASUDIL] | > 30 µM (inactive) | > 30 µM (inactive) | – | > 30 µM (inactive) | > 30 µM (inactive) | > 30 µM (inactive) | – | > 30 µM (inactive) | > 30 µM (inactive) | > 30 µM (inactive) | > 30 µM (inactive) | > 30 µM (inactive) | > 30 µM (inactive) | > 30 µM (inactive) | > 30 µM (inactive) | – | – | > 30 µM (inactive) | > 30 µM (inactive) | – |
